Measurements from ChEMBL document CHEMBL1201861, “Genomics of Drug Sensitity in Cancer screening data, Wellcome Trust Sanger Institute”.

Key:
Assay in all cases: cells
[1] = tested on: D-263MG; type: functional, cell-based, Homo sapiens; conditions: Homo sapiens, D-263MG
Description: SANGER: Inhibition of human D-263MG cell growth in a cell viability assay.

[2] = tested on: DSH1; type: functional, cell-based; conditions: Homo sapiens;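 further: growth inhibition of human DSH1 cells, measured with a cell viability readout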
Description: SANGER: Inhibition of human DSH1 cell growth in a cell viability assay.

[3] = tested on: ES1; type: functional, cell-based, Homo sapiens; conditions: Homo sapiens, ES1;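 further: growth inhibition of ES1 cells, read out with a cell viability assay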
Description: SANGER: Inhibition of human ES1 cell growth in a cell viability assay.

[4] = tested on: ES3; type: functional, cell-based, Homo sapiens; conditions: Homo sapiens, ES3;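 further: growth inhibition of ES3 cells, read out with a cell viability assay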
Description: SANGER: Inhibition of human ES3 cell growth in a cell viability assay.

[5] = tested on: ES7; type: functional, cell-based, Homo sapiens; conditions: Homo sapiens, ES7;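 further: growth inhibition of cultured human ES7 cells, read out as cell viability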
Description: SANGER: Inhibition of human ES7 cell growth in a cell viability assay.

[6] = tested on: EW-16; type: functional, cell-based, Homo sapiens; conditions: Homo sapiens, EW-16;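 further: growth inhibition of human EW-16 cells, read out as cell viability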
Description: SANGER: Inhibition of human EW-16 cell growth in a cell viability assay.

[7] = tested on: EW-18; type: functional, cell-based, Homo sapiens; conditions: Homo sapiens, EW-18; read-out: IC50;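 further: growth inhibition of EW-18 cells, read out by a cell viability assay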
Description: SANGER: Inhibition of human EW-18 cell growth in a cell viability assay.

[8] = tested on: GOTO; type: functional, cell-based, Homo sapiens; conditions: Homo sapiens, GOTO;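 further: growth inhibition of GOTO cells, read out by a cell viability assay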
Description: SANGER: Inhibition of human GOTO cell growth in a cell viability assay.

[9] = tested on: GT3TKB; type: functional, cell-based, Homo sapiens; conditions: Homo sapiens, GT3TKB;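 further: growth inhibition of the cell line, read out with a cell viability assay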
Description: SANGER: Inhibition of human GT3TKB cell growth in a cell viability assay.

[10] = tested on: HL-60; type: functional, cell-based, Homo sapiens; conditions: Homo sapiens, HL-60;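 further: growth inhibition of human HL-60 cells, read out with a cell viability assay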
Description: SANGER: Inhibition of human HL-60 cell growth in a cell viability assay.

[11] = tested on: HOP-62; type: functional, cell-based, Homo sapiens; conditions: Homo sapiens, HOP-62;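 further: cell growth inhibition determined with a viability assay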
Description: SANGER: Inhibition of human HOP-62 cell growth in a cell viability assay.

[12] = tested on: IA-LM; type: functional, cell-based; conditions: Homo sapiens;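 further: cell viability assay measuring growth inhibition of human IA-LM cells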
Description: SANGER: Inhibition of human IA-LM cell growth in a cell viability assay.

[13] = tested on: IST-MEL1; type: functional, cell-based, Homo sapiens; conditions: Homo sapiens, IST-MEL1;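 further: growth inhibition of the cell line, read out with a cell viability assay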
Description: SANGER: Inhibition of human IST-MEL1 cell growth in a cell viability assay.

[14] = tested on: KALS-1; type: functional, cell-based, Homo sapiens; conditions: Homo sapiens, KALS-1; read-out: IC50;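 further: growth inhibition of KALS-1 cells, determined with a cell viability assay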
Description: SANGER: Inhibition of human KALS-1 cell growth in a cell viability assay.

[15] = tested on: KARPAS-45; type: functional, cell-based, Homo sapiens; conditions: Homo sapiens, KARPAS-45;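 further: inhibition of cell line growth, read out through a viability assay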
Description: SANGER: Inhibition of human KARPAS-45 cell growth in a cell viability assay.

[16] = tested on: KINGS-1; type: functional, cell-based, Homo sapiens; conditions: Homo sapiens, KINGS-1;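 further: cell viability assay measuring suppression of KINGS-1 cell growth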
Description: SANGER: Inhibition of human KINGS-1 cell growth in a cell viability assay.

[17] = tested on: KM-H2; type: functional, cell-based, Homo sapiens; conditions: Homo sapiens, KM-H2;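 further: growth inhibition of KM-H2 cells, read out by a cell viability assay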
Description: SANGER: Inhibition of human KM-H2 cell growth in a cell viability assay.

[18] = tested on: KM12; type: functional, cell-based, Homo sapiens; conditions: Homo sapiens, KM12;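 further: KM12 cell growth inhibition, read out with a cell viability assay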
Description: SANGER: Inhibition of human KM12 cell growth in a cell viability assay.

[19] = tested on: KNS-81-FD; type: functional, cell-based, Homo sapiens; conditions: Homo sapiens, KNS-81-FD;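 further: growth inhibition of KNS-81-FD cells, read out with a cell viability assay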
Description: SANGER: Inhibition of human KNS-81-FD cell growth in a cell viability assay.

[20] = tested on: LB2241-RCC; type: functional, cell-based, Homo sapiens; conditions: Homo sapiens, LB2241-RCC;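 further: cell viability assay measuring how strongly the cultured human renal carcinoma line is prevented from growing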
Description: SANGER: Inhibition of human LB2241-RCC cell growth in a cell viability assay.

[21] = tested on: LB2518-MEL; type: functional, cell-based; conditions: Homo sapiens;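 further: growth inhibition of human LB2518-MEL cells, measured with a cell viability assay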
Description: SANGER: Inhibition of human LB2518-MEL cell growth in a cell viability assay.

[22] = tested on: LS-1034; type: functional, cell-based, Homo sapiens; conditions: Homo sapiens, LS-1034
Description: SANGER: Inhibition of human LS-1034 cell growth in a cell viability assay.

[23] = tested on: LXF-289 cell line; type: functional, cell-based; conditions: Homo sapiens
Description: SANGER: Inhibition of human LXF-289 cell growth in a cell viability assay.

[24] = tested on: MLMA; type: functional, cell-based, Homo sapiens; conditions: Homo sapiens, MLMA;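 further: growth inhibition of MLMA cells (human), determined through a cell viability readout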
Description: SANGER: Inhibition of human MLMA cell growth in a cell viability assay.

[25] = tested on: Mo; type: functional, cell-based, Homo sapiens; conditions: Homo sapiens, Mo
Description: SANGER: Inhibition of human Mo-T cell growth in a cell viability assay.

[26] = tested on: NB69; type: functional, cell-based, Homo sapiens; conditions: Homo sapiens, NB69;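 further: growth inhibition of NB69 cells, determined by a cell viability assay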
Description: SANGER: Inhibition of human NB69 cell growth in a cell viability assay.

[27] = tested on: NCI-H1155; type: functional, cell-based, Homo sapiens; conditions: Homo sapiens, NCI-H1155;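 further: cell growth inhibition measured by a viability assay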
Description: SANGER: Inhibition of human NCI-H1155 cell growth in a cell viability assay.

[28] = tested on: NCI-H1648; type: functional, cell-based, Homo sapiens; conditions: Homo sapiens, NCI-H1648;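 further: cell viability assay measuring inhibition of NCI-H1648 cell growth, from the Sanger screening data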
Description: SANGER: Inhibition of human NCI-H1648 cell growth in a cell viability assay.

[29] = tested on: NCI-H1650; type: functional, cell-based, Homo sapiens; conditions: Homo sapiens, NCI-H1650;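 further: growth inhibition of human NCI-H1650 cells measured by a cell viability assay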
Description: SANGER: Inhibition of human NCI-H1650 cell growth in a cell viability assay.

[30] = tested on: NCI-H226; type: functional, cell-based, Homo sapiens; conditions: Homo sapiens, NCI-H226;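 further: cell viability read-out used to gauge growth inhibition of the cells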
Description: SANGER: Inhibition of human NCI-H226 cell growth in a cell viability assay.

[31] = tested on: NCI-H446; type: functional, cell-based, Homo sapiens; conditions: Homo sapiens, NCI-H446;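 further: growth inhibition of NCI-H446 cells determined by a cell viability assay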
Description: SANGER: Inhibition of human NCI-H446 cell growth in a cell viability assay.

[32] = tested on: NOMO-1; type: functional, cell-based, Homo sapiens; conditions: Homo sapiens, NOMO-1;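 further: growth inhibition of human NOMO-1 cells measured by a cell viability assay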
Description: SANGER: Inhibition of human NOMO-1 cell growth in a cell viability assay.

[33] = tested on: OS-RC-2; type: functional, cell-based, Homo sapiens; conditions: Homo sapiens, OS-RC-2;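 further: growth inhibition of human OS-RC-2 cells, measured by a cell viability assay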
Description: SANGER: Inhibition of human OS-RC-2 cell growth in a cell viability assay.

[34] = tested on: OVCAR-4; type: functional, cell-based, Homo sapiens; conditions: Homo sapiens, OVCAR-4;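 further: growth inhibition of human OVCAR-4 cells, measured with a cell viability assay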
Description: SANGER: Inhibition of human OVCAR-4 cell growth in a cell viability assay.

[35] = tested on: PSN1; type: functional, cell-based, Homo sapiens; conditions: Homo sapiens, PSN1;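 further: suppression of growth of human PSN1 cells, read out by a cell viability assay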
Description: SANGER: Inhibition of human PSN1 cell growth in a cell viability assay.

[36] = tested on: RH-1; type: functional, cell-based, Homo sapiens; conditions: Homo sapiens, RH-1;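 further: growth inhibition of human RH-1 cells, read out with a cell viability assay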
Description: SANGER: Inhibition of human RH-1 cell growth in a cell viability assay.

[37] = tested on: RPMI-8226; type: functional, cell-based, Homo sapiens; conditions: Homo sapiens, RPMI-8226
Description: SANGER: Inhibition of human RPMI-8226 cell growth in a cell viability assay.

[38] = tested on: SBC-1; type: functional, cell-based, Homo sapiens; conditions: Homo sapiens, SBC-1;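 further: cell viability assay measuring growth inhibition of the SBC-1 cell line, IC50 being the concentration that halves growth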
Description: SANGER: Inhibition of human SBC-1 cell growth in a cell viability assay.

[39] = tested on: SF-268; type: functional, cell-based, Homo sapiens; conditions: Homo sapiens, SF-268;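 further: growth inhibition of SF-268 cells determined with a cell viability assay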
Description: SANGER: Inhibition of human SF268 cell growth in a cell viability assay.

[40] = tested on: SK-N-DZ; type: functional, cell-based, Homo sapiens; conditions: Homo sapiens, SK-N-DZ; read-out: IC50;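 further: growth inhibition of the cancer cell line, read out through a viability assay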
Description: SANGER: Inhibition of human SK-N-DZ cell growth in a cell viability assay.

[41] = tested on: SK-N-FI; type: functional, cell-based, Homo sapiens; conditions: Homo sapiens, SK-N-FI;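 further: cell viability assay measuring growth inhibition of human SK-N-FI cells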
Description: SANGER: Inhibition of human SK-N-FI cell growth in a cell viability assay.

[42] = tested on: SNU-C2B; type: functional, cell-based; conditions: Homo sapiens;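 further: cell viability readout used to measure compound-driven suppression of SNU-C2B cell proliferation, IC50 marking half-maximal growth inhibition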
Description: SANGER: Inhibition of human SNU-C2B cell growth in a cell viability assay.

[43] = tested on: SW 954; type: functional, cell-based, Homo sapiens; conditions: Homo sapiens, SW 954;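 further: growth inhibition of SW954 human cancer cells, read out as cell viability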
Description: SANGER: Inhibition of human SW954 cell growth in a cell viability assay.

[44] = tested on: SW982; type: functional, cell-based; conditions: Homo sapiens;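 further: growth inhibition of SW982 cells, read out with a cell viability assay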
Description: SANGER: Inhibition of human SW982 cell growth in a cell viability assay.

[45] = tested on: A4-Fuk; type: functional, cell-based, Homo sapiens; conditions: Homo sapiens, A4-Fuk;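 further: growth inhibition of A4-Fuk cells, read out by a cell viability assay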
Description: SANGER: Inhibition of human A4-Fuk cell growth in a cell viability assay.

[46] = tested on: AM-38; type: functional, cell-based, Homo sapiens; conditions: Homo sapiens, AM-38;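 further: growth inhibition of AM-38 cells of human origin, read out by a cell viability assay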
Description: SANGER: Inhibition of human AM-38 cell growth in a cell viability assay.

[47] = tested on: C2BBe1; type: functional, cell-based, Homo sapiens; conditions: Homo sapiens, C2BBe1;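 further: growth inhibition of C2BBe1 cells, read out through a viability assay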
Description: SANGER: Inhibition of human C2BBe1 cell growth in a cell viability assay.

[48] = tested on: TGBC1TKB; type: functional, cell-based, Homo sapiens; conditions: Homo sapiens, TGBC1TKB;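 further: growth inhibition of TGBC1TKB cells, read out by a cell viability assay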
Description: SANGER: Inhibition of human TGBC1TKB cell growth in a cell viability assay.

[49] = tested on: CGTH-W-1; type: functional, cell-based, Homo sapiens; conditions: Homo sapiens, CGTH-W-1;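 further: growth inhibition of human CGTH-W-1 cells measured by cell viability assay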
Description: SANGER: Inhibition of human CGTH-W-1 cell growth in a cell viability assay.

[50] = tested on: COLO-684; type: functional, cell-based, Homo sapiens; conditions: Homo sapiens, COLO-684
Description: SANGER: Inhibition of human COLO-684 cell growth in a cell viability assay.

Compound: CC1=C(/C=C/C(C)=C/C=C/C(C)=C/C(=O)O)C(C)(C)CCC1 [TRETINOIN]
- IC50 [1]: > 10000 nM
- IC50 [2]: > 10000 nM
- IC50 [3]: > 10000 nM
- IC50 [4]: > 10000 nM
- IC50 [5]: > 10000 nM
- IC50 [6]: > 10000 nM
- IC50 [7]: > 10000 nM
- IC50 [8]: > 10000 nM
- IC50 [9]: > 10000 nM
- IC50 [10]: 285 nM
- IC50 [11]: > 10000 nM
- IC50 [12]: > 10000 nM
- IC50 [13]: > 10000 nM
- IC50 [14]: > 10000 nM
- IC50 [15]: 2600 nM
- IC50 [16]: > 10000 nM
- IC50 [17]: > 10000 nM
- IC50 [18]: > 10000 nM
- IC50 [19]: > 10000 nM
- IC50 [20]: > 10000 nM
- IC50 [21]: > 10000 nM
- IC50 [22]: > 10000 nM
- IC50 [23]: > 10000 nM
- IC50 [24]: > 10000 nM
- IC50 [25]: > 10000 nM
- IC50 [26]: > 10000 nM
- IC50 [27]: > 10000 nM
- IC50 [28]: 9740 nM
- IC50 [29]: > 10000 nM
- IC50 [30]: > 10000 nM
- IC50 [31]: > 10000 nM
- IC50 [32]: > 10000 nM
- IC50 [33]: > 10000 nM
- IC50 [34]: > 10000 nM
- IC50 [35]: > 10000 nM
- IC50 [36]: > 10000 nM
- IC50 [37]: 993 nM
- IC50 [38]: > 10000 nM
- IC50 [39]: > 10000 nM
- IC50 [40]: > 10000 nM
- IC50 [41]: > 10000 nM
- IC50 [42]: > 10000 nM
- IC50 [43]: > 10000 nM
- IC50 [44]: > 10000 nM
- IC50 [45]: > 10000 nM
- IC50 [46]: > 10000 nM
- IC50 [47]: > 10000 nM
- IC50 [48]: > 10000 nM
- IC50 [49]: > 10000 nM
- IC50 [50]: > 10000 nM

Compound: NC(=O)c1ccc(N(C(N)=O)c2c(F)cccc2F)nc1-c1ccc(F)cc1F [VX-702]
- IC50 [1]: > 2000 nM
- IC50 [2]: > 2000 nM
- IC50 [3]: > 2000 nM
- IC50 [4]: > 2000 nM
- IC50 [5]: > 2000 nM
- IC50 [6]: > 2000 nM
- IC50 [7]: 747 nM
- IC50 [8]: > 2000 nM
- IC50 [9]: > 2000 nM
- IC50 [10]: > 2000 nM
- IC50 [11]: 15.4 nM
- IC50 [12]: > 2000 nM
- IC50 [13]: > 2000 nM
- IC50 [14]: > 2000 nM
- IC50 [15]: 148 nM
- IC50 [16]: > 2000 nM
- IC50 [17]: > 2000 nM
- IC50 [18]: > 2000 nM
- IC50 [19]: > 2000 nM
- IC50 [20]: > 2000 nM
- IC50 [21]: > 2000 nM
- IC50 [22]: > 2000 nM
- IC50 [23]: > 2000 nM
- IC50 [24]: > 2000 nM
- IC50 [25]: > 2000 nM
- IC50 [26]: > 2000 nM
- IC50 [27]: > 2000 nM
- IC50 [28]: > 2000 nM
- IC50 [29]: > 2000 nM
- IC50 [30]: > 2000 nM
- IC50 [31]: > 2000 nM
- IC50 [32]: > 2000 nM
- IC50 [33]: > 2000 nM
- IC50 [34]: > 2000 nM
- IC50 [35]: > 2000 nM
- IC50 [36]: > 2000 nM
- IC50 [37]: > 2000 nM
- IC50 [38]: 236 nM
- IC50 [39]: > 2000 nM
- IC50 [40]: > 2000 nM
- IC50 [41]: > 2000 nM
- IC50 [42]: > 2000 nM
- IC50 [43]: > 2000 nM
- IC50 [44]: > 2000 nM
- IC50 [45]: > 2000 nM
- IC50 [46]: > 2000 nM
- IC50 [47]: > 2000 nM
- IC50 [48]: > 2000 nM
- IC50 [49]: > 2000 nM
- IC50 [50]: > 2000 nM
